Assay results taken from ChEMBL document CHEMBL6083190, “Synthesis and mechanistic study of Aβ42 C-terminus domain derived tetrapeptides that inhibit Alzheimer's Aβ-aggregation-induced neurotoxicity” (Bioorg Med Chem Lett, 2024).
Calls of active or inactive are those of the source. The calls are words filed in the database; no cut-off is given here. Non-standard residues stand in square brackets, D forms with d. Residues, ends and D or L forms follow the SMILES beside them. ξ: configuration not given here. Tle = CC(C)(C)[C@H](N)C(=O)O; ξOic = O=C(O)C1CC2CCCCC2N1; Aib = CC(C)(N)C(=O)O

Columns and labels:
[1] = Inhibition of amyloid beta-induced neurotoxicity in rat PC-12 cells at 2 uM by MTT assay relative to control; type: functional
[2] = tested on: PC-12; test: Protection against amyloid beta-induced neurotoxicity in rat PC-12 cells assessed as cell viability at 2 uM by MTT assay (reference value: 63.6 %); type: functional; conditions: read-out: Activity
[3] = tested on: PC-12; test: Protection against amyloid beta-induced neurotoxicity in rat PC-12 cells assessed as cell viability at 10 uM by MTT assay (reference value: 63.6 %); type: functional; conditions: read-out: Activity
[4] = tested on: PC-12; test: Protection against amyloid beta-induced neurotoxicity in rat PC-12 cells assessed as cell viability at 4 uM by MTT assay (reference value: 63.6 %); type: functional; conditions: read-out: Activity
[5] = Inhibition of amyloid beta-induced neurotoxicity in rat PC-12 cells at 10 uM by MTT assay relative to control; type: functional
[6] = Inhibition of amyloid beta-induced neurotoxicity in rat PC-12 cells at 4 uM by MTT assay relative to control; type: functional
[7] = molecular target: Amyloid-beta precursor protein (Homo sapiens) (UniProt P05067); test: Inhibition of amyloid beta (1 to 42) (unknown origin) self aggregation by ThT fluorescence assay relative to control; conditions: concentration not given here
Chain of Amyloid-beta precursor protein (Homo sapiens) (P05067 whole entry): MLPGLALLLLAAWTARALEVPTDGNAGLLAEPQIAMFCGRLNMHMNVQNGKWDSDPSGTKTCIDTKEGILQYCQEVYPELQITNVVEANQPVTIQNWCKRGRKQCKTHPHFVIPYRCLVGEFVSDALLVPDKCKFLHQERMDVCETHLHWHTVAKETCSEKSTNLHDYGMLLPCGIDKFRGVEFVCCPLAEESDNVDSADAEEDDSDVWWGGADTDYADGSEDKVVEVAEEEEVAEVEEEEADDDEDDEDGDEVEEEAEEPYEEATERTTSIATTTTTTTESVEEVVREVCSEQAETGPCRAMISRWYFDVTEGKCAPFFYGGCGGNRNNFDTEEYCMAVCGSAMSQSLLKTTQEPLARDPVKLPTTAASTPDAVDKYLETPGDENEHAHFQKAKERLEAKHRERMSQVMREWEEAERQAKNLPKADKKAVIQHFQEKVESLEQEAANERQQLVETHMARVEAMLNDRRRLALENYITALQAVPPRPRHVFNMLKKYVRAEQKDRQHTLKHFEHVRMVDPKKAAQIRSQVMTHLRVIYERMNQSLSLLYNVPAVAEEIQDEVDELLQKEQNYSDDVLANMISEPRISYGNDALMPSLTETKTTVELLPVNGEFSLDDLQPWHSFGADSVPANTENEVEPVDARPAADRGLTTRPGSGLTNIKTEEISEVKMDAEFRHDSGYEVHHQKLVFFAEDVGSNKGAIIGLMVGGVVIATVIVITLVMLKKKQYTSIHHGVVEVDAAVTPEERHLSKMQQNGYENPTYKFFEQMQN

[8] = molecular target: Amyloid-beta precursor protein (Homo sapiens) (UniProt P05067); test: Inhibition of amyloid beta (1 to 42) (unknown origin) self aggregation at 2 to 10 uM by ThT fluorescence assay; conditions: dose 2-10 µM
[9] = molecular target: Amyloid-beta precursor protein (Homo sapiens) (UniProt P05067); test: Inhibition of amyloid beta (1 to 42) (unknown origin) self-aggregation assessed as absence of fibrillar aggregates at 1:5 amyloid-beta:compound concentration ratio incubated for 72 hrs by scanning transmission electron microscopic analysis
[10] = molecular target: Amyloid-beta precursor protein (Homo sapiens) (UniProt P05067); test: Inhibition of amyloid beta (1 to 42) (unknown origin) self-aggregation assessed as absence of fibrillar aggregates at 1:5 amyloid-beta:compound concentration ratio incubated for 72 hrs by high-resolution transmission electron microscopic analysis
[11] = molecular target: Amyloid-beta precursor protein (Homo sapiens) (UniProt P05067); test: Inhibition of amyloid beta (1 to 42) (unknown origin) self-aggregation assessed as absence of fibrillar aggregates at 1:5 amyloid-beta:compound concentration ratio measured immediately by high-resolution transmission electron microscopic analysis
[12] = molecular target: Amyloid-beta precursor protein (Homo sapiens) (UniProt P05067); test: Inhibition of amyloid beta (1 to 42) (unknown origin) self-aggregation assessed as absence of fibrillar aggregates at 1:5 amyloid-beta:compound concentration ratio measured immediately by scanning transmission electron microscopic analysis

Row | SMILES | inhibition at 2 µM [1] [%] | viability at 2 µM [2] [%] | viability at 10 µM [3] [%] | viability at 4 µM [4] [%] | inhibition at 10 µM [5] [%] | inhibition at 4 µM [6] [%] | inhibition [7] [%] | inhibition [8] | inhibition [9] | inhibition [10] | inhibition [11] | inhibition [12]
1 | CC(C)[C@H](NC(=O)[C@@H](NC(=O)C(C)(C)NC(=O)[C@H](C)N)C(C)C)C(N)=O (H-A[Aib]VV-NH2) | 0 | 52.1 | 59.6 | 75.3 | 0 | 32 |  |  |  |  |  | 
2 | CC[C@H](C)[C@H](NC(=O)[C@H](C)N)C(=O)N[C@H](C(=O)N[C@H](C(N)=O)C(C)C)C(C)C | 0 | 55.2 | 58.3 | 69 | 0 | 15 |  |  |  |  |  | 
3 | CC[C@H](C)[C@H](NC(=O)[C@@H](NC(=O)[C@@H](N)C(C)C)C(C)C)C(=O)N[C@@H](Cc1ccccc1)C(N)=O (H-VVIF-NH2) | 60 | 85.6 | 66.9 | 83.6 | 9 | 55 | > 50 |  |  |  |  | 
4 | CC[C@H](C)[C@H](NC(=O)C1CC2CCCCC2N1C(=O)[C@@H](N)C(C)C)C(=O)N[C@@H](C)C(N)=O (stereo partly specified) (H-V[ξOic]IA-NH2) | 1 | 64.1 | 62.1 | 78.6 | 0 | 41 |  |  |  |  |  | 
5 | CC[C@H](C)[C@H](NC(=O)[C@@H](NC(=O)[C@@H](N)C(C)(C)C)C(C)C)C(=O)N[C@@H](C)C(N)=O (H-[Tle]VIA-NH2) | 45 | 79.9 | 64.6 | 61.1 | 3 | 0 |  |  |  |  |  | 
6 | CC[C@@H](C)[C@@H](NC(=O)[C@@H](C)N)C(=O)N[C@@H](C(=O)N[C@@H](C(N)=O)C(C)C)C(C)C | 14 | 68.7 | 74.6 | 63.3 | 30 | 0 |  |  |  |  |  | 
7 | CC[C@H](C)[C@H](NC(=O)[C@H](C)N)C(=O)N[C@H](C(=O)NC(C)(C)C(N)=O)C(C)C (H-AIV[Aib]-NH2) | 32 | 75.3 | 70.9 | 67 | 20 | 9 |  | Active |  |  |  | 
8 | CC[C@H](C)[C@H](NC(=O)[C@@H](NC(=O)C1Cc2ccccc2CN1)C(C)C)C(=O)N[C@@H](C)C(N)=O (stereo partly specified) | 14 | 68.8 | 61.8 | 62.4 | 0 | 0 |  | Active |  |  |  | 
9 | CC[C@H](C)[C@H](NC(=O)C1Cc2ccccc2CN1C(=O)[C@@H](N)C(C)C)C(=O)N[C@@H](C)C(N)=O (stereo partly specified) | 87 | 95.4 | 76.1 | 80.3 | 34 | 46 | > 50 | Active |  |  |  | 
10 | CC[C@H](C)[C@H](NC(=O)[C@@H](NC(=O)[C@@H](N)C(C)C)C(C)C)C(=O)N[C@@H](C)C(N)=O | 0 | 60.7 | 63.4 | 59.4 | 0 | 0 |  |  |  |  |  | 
11 | CC[C@H](C)[C@H](NC(=O)[C@H](N)Cc1ccccc1)C(=O)N[C@H](C(=O)N[C@H](C(N)=O)C(C)C)C(C)C | 13 | 68.4 | 67 | 54.7 | 9.3 | 0 |  |  |  |  |  | 
12 | CC[C@H](C)[C@H](NC(=O)[C@@H](NC(=O)C1CC2CCCCC2N1)C(C)C)C(=O)N[C@@H](C)C(N)=O (stereo partly specified) | 5 | 65.3 | 57.7 | 63.3 | 0 | 0 |  |  | Not active; Formation Of Small, Non-Fibrillar Like Amorphous Aggregates Observed | Not active; Formation Of Small, Non-Fibrillar Like Amorphous Aggregates Observed | Not active; Small Aggregates Observed | Not active; Small Aggregates Observed
13 | CC[C@@H](C)[C@@H](NC(=O)[C@H](NC(=O)[C@H](N)C(C)C)C(C)C)C(=O)N[C@H](C)C(N)=O | 27 | 73.3 | 64.1 | 65.6 | 1 | 6 |  |  |  |  |  | 
14 | CC[C@H](C)[C@H](NC(=O)[C@@H](NC(=O)[C@@H](N)C(C)C)C(C)(C)C)C(=O)N[C@@H](C)C(N)=O (H-V[Tle]IA-NH2) | 39 | 77.7 | 74.9 | 78.8 | 31 | 42 |  | Active |  |  |  | 
15 | CC[C@H](C)[C@H](NC(=O)[C@H](C)N)C(=O)N[C@H](C(=O)N[C@H](Cc1ccccc1)C(N)=O)C(C)C | 0 | 55.2 | 76.4 | 69.1 | 35 | 15 |  | Active |  |  |  | 
